Biological target: T1, estrogen-related receptor gamma (ERRγ) (Homo sapiens, UniProt P62508)
T1 construct: gene ESRRG; His-tagged ERRγ LBD
T1 sequence (P62508 233-458 limits assumed): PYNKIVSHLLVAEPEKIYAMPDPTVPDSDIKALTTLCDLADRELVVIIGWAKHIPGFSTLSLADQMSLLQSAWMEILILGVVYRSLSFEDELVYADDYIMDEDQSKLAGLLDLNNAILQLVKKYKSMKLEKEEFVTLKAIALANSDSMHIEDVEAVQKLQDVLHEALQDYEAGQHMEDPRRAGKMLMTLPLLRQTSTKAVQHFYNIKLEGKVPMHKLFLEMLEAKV
T1 sequence (Q9UBK2 1-798 partner): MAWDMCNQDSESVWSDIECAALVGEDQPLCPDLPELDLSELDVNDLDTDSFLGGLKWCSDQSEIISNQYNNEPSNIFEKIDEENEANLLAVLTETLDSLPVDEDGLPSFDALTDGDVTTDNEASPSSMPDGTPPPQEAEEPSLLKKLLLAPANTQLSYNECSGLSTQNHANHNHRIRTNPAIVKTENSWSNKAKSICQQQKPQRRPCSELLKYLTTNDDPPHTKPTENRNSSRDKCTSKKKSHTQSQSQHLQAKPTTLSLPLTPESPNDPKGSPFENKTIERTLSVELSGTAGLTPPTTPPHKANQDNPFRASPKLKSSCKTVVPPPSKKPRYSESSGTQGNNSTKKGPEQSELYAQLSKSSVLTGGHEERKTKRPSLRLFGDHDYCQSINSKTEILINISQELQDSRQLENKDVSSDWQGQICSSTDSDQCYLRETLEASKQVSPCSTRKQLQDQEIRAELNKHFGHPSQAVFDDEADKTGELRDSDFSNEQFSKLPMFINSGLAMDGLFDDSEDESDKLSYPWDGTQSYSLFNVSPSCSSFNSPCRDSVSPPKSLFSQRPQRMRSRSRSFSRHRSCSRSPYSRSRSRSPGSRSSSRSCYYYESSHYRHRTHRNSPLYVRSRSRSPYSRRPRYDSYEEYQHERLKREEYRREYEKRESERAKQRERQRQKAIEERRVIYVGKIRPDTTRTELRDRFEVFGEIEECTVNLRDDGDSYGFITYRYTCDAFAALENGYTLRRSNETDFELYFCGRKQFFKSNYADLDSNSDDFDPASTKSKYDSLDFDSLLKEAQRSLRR
Experiment: LanthaScreen TR-FRET PGC1a coactivator-binding assay (agonist)
Type: biochemical

O=C1c2ccc(N3CCOCC3)cc2CN1c1ccc2[nH]c(-c3ccc(Br)cc3)nc2c1 [T112, 2-[2-(4-bromophenyl)-1H-benzimidazol-5-yl]-5-(morpholin-4-yl)-2,3-dihydro-1H-isoindol-1-one]
LanthaScreen TR-FRET PGC1a coactivator-binding assay (agonist): to have ERRγ-agonistic activity with stronger effects than the commercially available ERRγ agonist GSK4716

From PMC8217550, “ERRγ enhances cardiac maturation with T-tubule formation in human iPSC-derived cardiomyocytes” (Nature Communications, 2021)
